The record followed here is US12161676B2, “Methods of use of islet cells” (CEDARS-SINAI MEDICAL CENTER, priority 2018, dated 2024).

The subject of the test is endocrine progenitors. The experiment in a line: Differentiation of iPSC-derived endocrine progenitors towards immature beta cells, marker expression with tested reagent combinations. It counts as cell-based, human. Particulars: addition of the reagent during differentiation of endocrine progenitors into beta cells. How it is done: FIG. 31. Expression of DAPI, C-Peptide, Glucagon and NKX6.1 when testing various compounds at day 23.
FIG. 32. Measurement of DAPI, C-Peptide, Glucagon and NKX6.1 expression across tested compound combinations.
To further differentiate endocrine progenitors into beta cells, various reagents were tested to determine which combinations are most efficient in generating immature beta cells. T3 was selected for its role in beta cell survival, function, and identity Alk5 inhibitor II was selected for its specificity in inhibition of TGF beta receptor 1. XXI was selected as Notch inhibitor to exit cell cycle and as a driving force between endocrine vs duct phenotypes. Noggin is selected for BMP inhibition due to evidence that inhibition of this pathway is important for endocrine differentiation. Addition of notch inhibitor XXI reduced NKX6.1 levels and increased glucagon levels. […] The aforementioned growth factors can be used in combination for immature beta cell production. Thereafter, there is a need for a maturation step to induce glucose sensitivity on immature induced-islet cells

In the case of `C[C@H](NC(=O)Cc1cc(F)cc(F)c1)C(=O)N[C@H]1N=C(c2ccccc2)c2ccccc2N(C)C1=O` [XXI], the NKX6.1 levels entry is listed as “reduced” and the glucagon levels result is given as “increased”.

For the molecule noggin, the c-peptide levels entry was “slightly increases”.
